By IC50 is commonly meant the concentration needed to halve the response being measured. Low readings indicate greater potency in that assay, high ones weaker potency in that assay.

The record followed here is patent US9682941B2, “Substituted biphenyl analogues as dual inhibitors of aromatase and sulfatase” (ESTRYX PHARMA LIMITED, priority 2013, dated 2017).

For one experiment, the target named is T1, steroid sulfatase (Homo sapiens, UniProt P08842).
T1 construct: JEG-3 which constitutively expresses high amount of aromatase and steroid sulfatase; endogenous in cells; host or cells: JEG-3
T1 sequence (P08842 22-583): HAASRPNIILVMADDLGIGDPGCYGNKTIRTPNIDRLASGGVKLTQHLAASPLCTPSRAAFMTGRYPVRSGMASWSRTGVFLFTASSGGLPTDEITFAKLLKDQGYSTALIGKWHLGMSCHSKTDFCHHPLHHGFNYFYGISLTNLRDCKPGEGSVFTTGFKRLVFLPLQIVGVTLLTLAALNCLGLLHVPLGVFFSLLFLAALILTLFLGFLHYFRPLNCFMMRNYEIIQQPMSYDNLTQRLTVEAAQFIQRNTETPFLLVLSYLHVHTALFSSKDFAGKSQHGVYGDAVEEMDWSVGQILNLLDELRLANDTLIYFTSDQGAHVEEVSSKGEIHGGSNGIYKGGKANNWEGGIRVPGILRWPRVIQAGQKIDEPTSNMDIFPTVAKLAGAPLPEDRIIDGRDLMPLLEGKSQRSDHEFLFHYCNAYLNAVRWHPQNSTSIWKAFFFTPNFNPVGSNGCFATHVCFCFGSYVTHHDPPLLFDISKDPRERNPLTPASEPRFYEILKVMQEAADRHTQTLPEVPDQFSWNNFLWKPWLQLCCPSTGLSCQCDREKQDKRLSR
The experiment is described as follows: Steroid sulfatase (STS) inhibition assay in JEG-3 cells ([6,7-3H] estrone sulfate). Conditions: 1 hour at 37° C., duplicate. The experiment is classed as cell-based. The method, then:
(§1) Aromatase and steroid sulfatase enzymes inhibitions were evaluated in the human chorionic carcinoma cell line JEG-3 which constitutively expresses high amount of aromatase and steroid sulfatase.
For STS assay, JEG-3 cells were seeded into 24-well culture plates at 150,000 cells/ml/well and maintained in MEM containing supplements overnight. When reaching 80% confluent, the cells were washed once with serum-free MEM, loaded with 1 ml of substrate mix containing [6,7-3H] Estrone sulfate (E1S, 0.6 μCi/ml) and [4-14C] Estrone (E1, 4 nCi/ml) in the presence of compounds in a concentration series, and incubated for 1 hour at 37° C. The product [3H]E1 was separated from E1S by toluene partition using [4-14C]E1 to monitor extraction procedural losses, and the toluene fraction radioactivity was measured by a MicroBeta scintillation counter.
(§2) Experiments are performed in duplicate. The inhibitory concentration of 50% of the enzymatic activity is calculated.

The next experiment addresses T2, aromatase (Homo sapiens, UniProt P11511).
T2 construct: JEG-3 which constitutively expresses high amount of aromatase and steroid sulfatase; endogenous in cells; host or cells: JEG-3
T2 sequence (P11511 1-503): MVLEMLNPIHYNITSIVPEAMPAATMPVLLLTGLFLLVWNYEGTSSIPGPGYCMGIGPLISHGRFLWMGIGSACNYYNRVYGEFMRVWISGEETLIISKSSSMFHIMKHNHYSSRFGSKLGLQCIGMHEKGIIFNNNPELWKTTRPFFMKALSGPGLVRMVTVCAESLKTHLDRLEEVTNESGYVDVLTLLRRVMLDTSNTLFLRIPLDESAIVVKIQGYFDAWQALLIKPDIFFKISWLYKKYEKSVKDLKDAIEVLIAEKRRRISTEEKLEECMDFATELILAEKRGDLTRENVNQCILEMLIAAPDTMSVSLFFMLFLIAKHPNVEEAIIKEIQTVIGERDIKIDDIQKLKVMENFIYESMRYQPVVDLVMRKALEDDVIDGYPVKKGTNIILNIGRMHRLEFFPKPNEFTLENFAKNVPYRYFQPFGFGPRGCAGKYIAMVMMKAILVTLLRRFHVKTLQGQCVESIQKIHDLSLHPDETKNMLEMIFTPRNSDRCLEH
The experiment is described as follows: Aromatase inhibition assay in JEG-3 cells ([1β-3H] androstenedione, tritiated water release). Conditions: 1.25 hour incubation, duplicate. In kind it is cell-based. The method, then: as §1
For aromatase inhibition assay, JEG-3 cells were seeded into 96-well plates at 35,000 cells/well and maintained in MEM containing supplements. When reaching 80% confluent, the cells were washed once with serum-free MEM, incubated with [1β-^3H] androstenedione (A4, 0.2 μCi/ml) for 1.25 hour in the presence of the test substances added in a concentration series. The product, tritiated water (^3H2O), was separated using 2.5% (w/v) dextran-coated charcoal at 4-8° C. for 2 hours. The supernatant radioactivity was measured by a MicroBeta scintillation counter.
as §2

Turning to `N#Cc1ccc(Cn2cnc3ccccc32)cc1-c1ccc(OS(N)(=O)=O)cc1` [Example 1, 5′-((1H-Benzo[d]imidazol-1-yl)methyl)-2′-cyano-[1,1′-biphenyl]-4-yl sulfamate], the IC50 on steroid sulfatase stood at 2 nM; against aromatase it was 1.2 nM.

As for `N#Cc1ccc(Nn2cnc3ccccc32)cc1-c1ccc(OS(N)(=O)=O)cc1` [Example 2, 5′-(1H-Benzo[d]imidazol-1-ylamino)-2′-cyano-[1,1′-biphenyl]-4-yl sulfamate], the IC50 came out at 6.8 nM on steroid sulfatase and 2 nM against aromatase.

As to `Cc1nc2ccccc2n1Cc1ccc(C#N)c(-c2ccc(OS(N)(=O)=O)cc2)c1` [Example 3, 2′-Cyano-5′-((2-methyl-1H-benzo[d]imidazol-1-yl)methyl)biphenyl-4-yl sulfamate], the half-maximal inhibitory concentration (IC50) was 18.9 nM at steroid sulfatase and greater than 60 nM at aromatase.

In the case of `N#Cc1ccc(Cn2nnc3ccccc32)cc1-c1ccc(OS(N)(=O)=O)cc1` [Example 4, 5′-((1H-Benzo[d][1,2,3]triazol-1-yl)methyl)-2′-cyano-[1,1′-biphenyl]-4-yl sulfamate], the values for the IC50 on steroid sulfatase and against aromatase were 12.1 nM and 4.8 nM, respectively.

For `CN(c1ccc(C#N)c(-c2ccc(OS(N)(=O)=O)cc2)c1)n1cnc2ccccc21` [Example 5, 5′-((1H-Benzo[d]imidazol-1-yl)(methyl)amino)-2′-cyano-[1,1′-biphenyl]-4-yl sulfamate], the IC50 against steroid sulfatase came to 25.6 nM; against aromatase, 3.2 nM.

Consider `N#Cc1ccc(N(CC2CC2)n2cnc3ccccc32)cc1-c1ccc(OS(N)(=O)=O)cc1` [Example 6, 5′-((1H-Benzo[d]imidazol-1-yl)(cyclopropylmethyl)amino)-2′-cyano-[1,1′-biphenyl]-4-yl sulfamate], for which the IC50 against steroid sulfatase is greater than 60 nM; at aromatase, 53.2 nM.

Turning to `N#Cc1ccc(Cn2c(C(F)(F)F)nc3ccccc32)cc1-c1ccc(OS(N)(=O)=O)cc1` [Example 7, 2′-Cyano-5′-((2-(trifluoromethyl)-1H-benzo[d]imidazol-1-yl)methyl)biphenyl-4-yl sulfamate], the IC50 was 16.4 nM on steroid sulfatase and greater than 60 nM at aromatase.

In the case of `N#Cc1ccc(Cn2nnc3cccnc32)cc1-c1ccc(OS(N)(=O)=O)cc1` [Example 8, 5′-((3H-[1,2,3]Triazolo[4,5-b]pyridin-3-yl)methyl)-2′-cyano-[1,1′-biphenyl]-4-yl sulfamate], the IC50 against steroid sulfatase was determined as 23.6 nM; on aromatase, 6.3 nM.

As for `N#Cc1ccc(Cn2cnc3ccccc32)nc1-c1ccc(OS(N)(=O)=O)cc1` [Example 10, 4-(6-((1H-Benzo[d]imidazol-1-yl)methyl)-3-cyanopyridin-2-yl)phenyl sulfamate], the IC50 stood at 9.1 nM on steroid sulfatase and 3.2 nM at aromatase.

As to `N#Cc1ccc(Nn2nnc3ccccc32)cc1-c1ccc(OS(N)(=O)=O)cc1` [Example 11, 5′-(1H-Benzo[d][1,2,3]triazol-1-ylamino)-2′-cyanobiphenyl-4-yl sulfamate], the half-inhibitory concentration (IC50) was determined as 18.4 nM at steroid sulfatase and 1.2 nM on aromatase.

For `N#Cc1ccc(Cn2cnc3cccnc32)cc1-c1ccc(OS(N)(=O)=O)cc1` [Example 12, 5′-((3H-Imidazo[4,5-b]pyridin-3-yl)methyl)-2′-cyano-[1,1′-biphenyl]-4-yl sulfamate], the IC50 at steroid sulfatase was found to be 7 nM; at aromatase it was 0.5 nM.

On to `CN(c1ccc(C#N)c(-c2ccc(OS(N)(=O)=O)cc2)c1)n1nnc2ccccc21` [Example 13, 5′-((1H-Benzo[d][1,2,3]triazol-1-yl)(methyl)amino)-2′-cyanobiphenyl-4-yl sulfamate], for which the half-inhibitory concentration (IC50) against steroid sulfatase is greater than 60 nM; against aromatase, 13.1 nM.

Regarding `N#Cc1ccc(Cn2cnc3cccnc32)nc1-c1ccc(OS(N)(=O)=O)cc1` [Example 14, 4-(6-((3H-Imidazo[4,5-b]pyridin-3-yl)methyl)-3-cyanopyridin-2-yl)phenyl sulfamate], the values for the IC50 at steroid sulfatase and against aromatase were 21.7 nM and 7 nM, respectively.

Take `N#Cc1cnc(Nn2cnc3ccccc32)nc1-c1ccc(OS(N)(=O)=O)cc1` [Example 15, 4-(2-(1H-Benzo[d]imidazol-1-ylamino)-5-cyanopyrimidin-4-yl)phenyl sulfamate]: the IC50 against steroid sulfatase came out at 14.6 nM; on aromatase, 17.5 nM.

On to `CN(c1ncc(C#N)c(-c2ccc(OS(N)(=O)=O)cc2)n1)n1cnc2ccccc21` [Example 16, 4-(2-((1H-Benzo[d]imidazol-1-yl)(methyl)amino)-5-cyanopyrimidin-4-yl)phenyl sulfamate], for which the IC50 at steroid sulfatase was found to be 22 nM; against aromatase, 6.4 nM.

On to `CSc1cc(-c2cc(Cn3cnc4ccccc43)ccc2C#N)ccc1OS(N)(=O)=O` [Example 18, 5′-((1H-Benzo[d]imidazol-1-yl)methyl)-2′-cyano-3-(methylthio)-[1,1′-biphenyl]-4-yl sulfamate], for which the half-maximal inhibitory concentration (IC50) against steroid sulfatase worked out at 26.4 nM; at aromatase, 1.2 nM.

As for `CSc1ccc(-c2cc(Cn3cnc4ccccc43)ccc2C#N)cc1OS(N)(=O)=O` [Example 19, 5′-((1H-benzo[d]imidazol-1-yl)methyl)-2′-cyano-4-(methylthio)-[1,1′-biphenyl]-3-yl sulfamate], the 50% inhibitory concentration (IC50) against steroid sulfatase is greater than 60 nM; on aromatase it was 2.2 nM.

Turning to `CSc1cc(-c2cc(Nn3cnc4ccccc43)ccc2C#N)ccc1OS(N)(=O)=O` [Example 20, 5′-((1H-Benzo[d]imidazol-1-yl)amino)-2′-cyano-3-(methylthio)-[1,1′-biphenyl]-4-yl sulfamate], the IC50 came out at 52.3 nM against steroid sulfatase and 2.9 nM against aromatase.

`CSc1ccc(-c2cc(Nn3cnc4ccccc43)ccc2C#N)cc1OS(N)(=O)=O` [Example 21, 5′-((1H-Benzo[d]imidazol-1-yl)amino)-2′-cyano-4-(methylthio)-[1,1′-biphenyl]-3-yl sulfamate]: the IC50 against steroid sulfatase is greater than 60 nM; against aromatase it was 2.2 nM.

Regarding `CN(c1ccc(C#N)c(-c2ccc(OS(N)(=O)=O)cc2)n1)n1cnc2ccccc21` [Example 23, 4-(6-((1H-Benzo[d]imidazol-1-yl)(methyl)amino)-3-cyanopyridin-2-yl)phenyl sulfamate], the IC50 amounted to 7.1 nM on steroid sulfatase and 6.5 nM against aromatase.

Turning to `N#Cc1cnc(Cn2cnc3cccnc32)nc1-c1ccc(OS(N)(=O)=O)cc1` [Example 25, 4-(2-((3H-Imidazo[4,5-b]pyridin-3-yl)methyl)-5-cyanopyrimidin-4-yl)phenyl sulfamate], the 50% inhibitory concentration (IC50) turned out to be 10.7 nM at steroid sulfatase and 6.2 nM against aromatase.

For the compound `CSc1cc(-c2cc(N(C)n3cnc4ccccc43)ccc2C#N)ccc1OS(N)(=O)=O` [Example 27, 5′-((1H-Benzo[d]imidazol-1-yl)(methyl)amino)-2′-cyano-3-(methylthio)-[1,1′-biphenyl]-4-yl sulfamate], the IC50 turned out to be 17.8 nM at steroid sulfatase and 4.6 nM against aromatase.

As to `CSc1ccc(-c2cc(N(C)n3cnc4ccccc43)ccc2C#N)cc1OS(N)(=O)=O` [Example 28, 5′-((1H-Benzo[d]imidazol-1-yl)(methyl)amino)-2′-cyano-4-(methylthio)-[1,1′-biphenyl]-3-yl sulfamate], the IC50 against steroid sulfatase was greater than 60 nM; on aromatase it was 5.8 nM.

As to `CN(c1cc(-c2ccc(OS(N)(=O)=O)cc2)c(C#N)cn1)n1cnc2ccccc21` [Example 29, 4-(2-((1H-Benzo[d]imidazol-1-yl)(methyl)amino)-5-cyanopyridin-4-yl)phenyl sulfamate], the figures for the IC50 at steroid sulfatase and at aromatase were 37.6 nM and 2.5 nM, respectively.

In the case of `N#Cc1ccc(Cn2cnc3ccccc32)cc1-c1ccc(OS(N)(=O)=O)cn1` [Example 30, 6-(5-((1H-Benzo[d]imidazol-1-yl)methyl)-2-cyanophenyl)pyridin-3-yl sulfamate], the figures for the IC50 on steroid sulfatase and against aromatase were 7.2 nM and 5.9 nM, respectively.
